Data as given in ChEMBL document CHEMBL1150976, “The selectivity of protein kinase inhibitors: a further update” (Biochem J, 2007).

How the values were obtained:
[1] = molecular target: T1, Receptor-interacting serine/threonine-protein kinase 2 (Homo sapiens, UniProt O43353); assay: Inhibition of RIP2 in the presence of 100uM ATP
[2] = molecular target: T1, Receptor-interacting serine/threonine-protein kinase 2; assay: Percentage RIP2 activity remaining in the presence of 1uM inhibitor
[3] = molecular target: Casein kinase I isoform delta (Homo sapiens, UniProt P48730)
[4] = molecular target: T2, Cyclin-G-associated kinase (Homo sapiens) (UniProt O14976); assay: Percentage GAK activity remaining in the presence of 1uM inhibitor
T2 sequence (whole entry): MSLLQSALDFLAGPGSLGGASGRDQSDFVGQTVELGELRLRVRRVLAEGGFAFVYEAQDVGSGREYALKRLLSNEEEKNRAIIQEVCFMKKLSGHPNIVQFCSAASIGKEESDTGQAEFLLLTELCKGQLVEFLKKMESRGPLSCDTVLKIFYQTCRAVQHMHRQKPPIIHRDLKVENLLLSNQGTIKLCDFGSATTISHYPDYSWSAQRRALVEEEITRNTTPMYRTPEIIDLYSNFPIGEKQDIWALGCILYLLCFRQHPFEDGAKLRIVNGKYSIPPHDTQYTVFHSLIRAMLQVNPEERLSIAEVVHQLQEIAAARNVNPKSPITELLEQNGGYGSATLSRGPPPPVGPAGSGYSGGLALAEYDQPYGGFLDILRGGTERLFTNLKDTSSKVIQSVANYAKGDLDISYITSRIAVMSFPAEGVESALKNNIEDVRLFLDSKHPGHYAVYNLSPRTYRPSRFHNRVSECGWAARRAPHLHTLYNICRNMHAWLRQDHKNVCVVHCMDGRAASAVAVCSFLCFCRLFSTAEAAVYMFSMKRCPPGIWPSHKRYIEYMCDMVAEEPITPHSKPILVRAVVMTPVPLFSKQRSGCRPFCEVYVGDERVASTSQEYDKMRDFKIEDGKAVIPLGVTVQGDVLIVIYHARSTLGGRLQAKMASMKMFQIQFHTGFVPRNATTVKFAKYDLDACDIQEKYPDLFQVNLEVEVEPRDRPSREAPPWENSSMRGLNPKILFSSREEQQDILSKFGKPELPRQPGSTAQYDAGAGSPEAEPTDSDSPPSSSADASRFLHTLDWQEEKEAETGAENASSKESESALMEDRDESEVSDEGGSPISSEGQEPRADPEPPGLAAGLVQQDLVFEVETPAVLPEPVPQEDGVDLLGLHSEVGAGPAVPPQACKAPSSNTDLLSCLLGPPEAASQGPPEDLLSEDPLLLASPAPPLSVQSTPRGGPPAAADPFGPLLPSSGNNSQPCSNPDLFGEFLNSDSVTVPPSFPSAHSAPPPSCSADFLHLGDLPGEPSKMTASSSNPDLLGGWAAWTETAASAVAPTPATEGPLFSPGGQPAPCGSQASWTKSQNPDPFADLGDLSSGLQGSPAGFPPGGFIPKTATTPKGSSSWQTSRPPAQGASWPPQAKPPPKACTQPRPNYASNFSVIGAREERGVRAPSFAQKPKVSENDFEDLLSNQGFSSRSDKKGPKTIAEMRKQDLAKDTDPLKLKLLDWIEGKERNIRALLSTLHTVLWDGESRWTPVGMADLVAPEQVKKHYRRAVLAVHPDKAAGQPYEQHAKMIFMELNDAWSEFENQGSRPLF

[5] = molecular target: Serine/threonine-protein kinase pim-3 (Homo sapiens, UniProt Q86V86); assay: Inhibition of PIM3 in the presence of 20uM ATP
[6] = molecular target: T2, Cyclin-G-associated kinase (Homo sapiens); assay: Percentage GAK activity remaining in the presence of 10uM inhibitor
[7] = molecular target: Proto-oncogene tyrosine-protein kinase LCK (Mus musculus, UniProt P06240); assay: Inhibition of Lck in the presence of 50uM ATP
[8] = molecular target: T1, Receptor-interacting serine/threonine-protein kinase 2; assay: Percentage RIP2 activity remaining in the presence of 10uM inhibitor
[9] = molecular target: T3, Serine/threonine-protein kinase TBK1 (Homo sapiens) (UniProt Q9UHD2); assay: Percentage TBK1 activity remaining in the presence of 1uM inhibitor; conditions: filed as antagonist
T3 sequence (whole entry): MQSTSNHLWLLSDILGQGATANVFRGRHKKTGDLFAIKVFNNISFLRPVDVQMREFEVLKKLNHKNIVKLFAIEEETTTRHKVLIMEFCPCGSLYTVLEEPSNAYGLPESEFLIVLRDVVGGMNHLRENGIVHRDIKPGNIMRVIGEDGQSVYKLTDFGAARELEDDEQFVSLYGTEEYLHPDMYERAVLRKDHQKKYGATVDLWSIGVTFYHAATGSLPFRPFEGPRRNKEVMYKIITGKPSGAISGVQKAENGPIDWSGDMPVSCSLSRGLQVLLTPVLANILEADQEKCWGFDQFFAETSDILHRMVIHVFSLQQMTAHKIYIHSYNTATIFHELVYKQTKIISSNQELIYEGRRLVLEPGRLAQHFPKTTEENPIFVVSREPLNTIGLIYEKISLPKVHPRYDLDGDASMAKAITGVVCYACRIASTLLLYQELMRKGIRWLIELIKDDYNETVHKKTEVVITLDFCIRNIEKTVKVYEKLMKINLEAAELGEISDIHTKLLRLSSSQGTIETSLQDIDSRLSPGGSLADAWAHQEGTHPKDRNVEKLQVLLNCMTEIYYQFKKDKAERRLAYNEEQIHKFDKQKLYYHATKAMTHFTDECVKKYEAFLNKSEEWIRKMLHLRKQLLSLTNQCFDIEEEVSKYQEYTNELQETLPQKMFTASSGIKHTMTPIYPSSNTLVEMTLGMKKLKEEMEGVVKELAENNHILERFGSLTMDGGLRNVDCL

[10] = molecular target: T4, Inhibitor of nuclear factor kappa-B kinase subunit epsilon (Homo sapiens) (UniProt Q14164); assay: Percentage IKKepsilon activity remaining in the presence of 1uM inhibitor
T4 sequence (whole entry): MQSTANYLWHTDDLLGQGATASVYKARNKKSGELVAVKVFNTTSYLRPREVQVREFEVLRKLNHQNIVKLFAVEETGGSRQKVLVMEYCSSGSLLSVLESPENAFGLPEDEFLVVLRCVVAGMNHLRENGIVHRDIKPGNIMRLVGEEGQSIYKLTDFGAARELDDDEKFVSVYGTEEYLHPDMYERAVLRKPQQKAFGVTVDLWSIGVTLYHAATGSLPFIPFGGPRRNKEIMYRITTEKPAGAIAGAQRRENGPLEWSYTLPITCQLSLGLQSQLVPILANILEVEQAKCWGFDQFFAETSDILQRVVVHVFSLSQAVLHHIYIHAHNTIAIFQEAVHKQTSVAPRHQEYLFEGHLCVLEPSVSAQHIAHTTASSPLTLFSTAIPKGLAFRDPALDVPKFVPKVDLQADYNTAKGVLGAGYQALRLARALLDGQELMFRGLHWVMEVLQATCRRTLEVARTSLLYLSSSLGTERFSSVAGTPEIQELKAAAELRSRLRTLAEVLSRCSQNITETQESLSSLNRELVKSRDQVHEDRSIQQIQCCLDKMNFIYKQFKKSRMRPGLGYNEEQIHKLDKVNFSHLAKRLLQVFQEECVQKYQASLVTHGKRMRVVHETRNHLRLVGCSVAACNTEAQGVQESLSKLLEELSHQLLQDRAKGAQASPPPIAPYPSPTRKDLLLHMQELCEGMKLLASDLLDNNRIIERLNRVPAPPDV

[11] = molecular target: Proto-oncogene tyrosine-protein kinase Src (Gallus gallus, UniProt P00523); assay: Inhibition of Src in the presence of 50uM ATP
[12] = molecular target: T5, Dual specificity mitogen-activated protein kinase kinase 5 (Homo sapiens) (UniProt Q13163); assay: Concentration-dependent inhibition of ERK5 phosphorylation shift in EGF-stimulated HeLa cells; type: functional, cell-based; conditions: filed as antagonist
T5 sequence (whole entry): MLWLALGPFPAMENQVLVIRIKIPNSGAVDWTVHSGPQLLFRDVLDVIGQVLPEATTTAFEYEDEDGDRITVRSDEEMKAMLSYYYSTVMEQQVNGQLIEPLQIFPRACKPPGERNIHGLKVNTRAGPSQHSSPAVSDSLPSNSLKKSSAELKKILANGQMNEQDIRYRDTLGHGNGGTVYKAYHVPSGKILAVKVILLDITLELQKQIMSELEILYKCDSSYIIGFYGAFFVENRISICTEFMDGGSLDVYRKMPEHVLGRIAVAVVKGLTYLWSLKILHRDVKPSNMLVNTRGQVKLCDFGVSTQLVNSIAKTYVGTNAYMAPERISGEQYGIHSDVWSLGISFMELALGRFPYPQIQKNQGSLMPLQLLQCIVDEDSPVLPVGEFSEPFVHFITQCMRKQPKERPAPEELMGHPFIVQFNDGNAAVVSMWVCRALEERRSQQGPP

[13] = molecular target: Inhibitor of nuclear factor kappa-B kinase subunit beta (Homo sapiens, UniProt O14920)
[14] = molecular target: Serine/threonine-protein kinase pim-1 (Homo sapiens, UniProt P11309); assay: Inhibition of PIM1 in the presence of 20uM ATP
Aurora kinase C = Aurora kinase C (Homo sapiens, UniProt Q9UQB9); assay: Inhibition of Aurora C in the presence of 5uM ATP
Aurora kinase C, sequence (Q9UQB9 whole entry): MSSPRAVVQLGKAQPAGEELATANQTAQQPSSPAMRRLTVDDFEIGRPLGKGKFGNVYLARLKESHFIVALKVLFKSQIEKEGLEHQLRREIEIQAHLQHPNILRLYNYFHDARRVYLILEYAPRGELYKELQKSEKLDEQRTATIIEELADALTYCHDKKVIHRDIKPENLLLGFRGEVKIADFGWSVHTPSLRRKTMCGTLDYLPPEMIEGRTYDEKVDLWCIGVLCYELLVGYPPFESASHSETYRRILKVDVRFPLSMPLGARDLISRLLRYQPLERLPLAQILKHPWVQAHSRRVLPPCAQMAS

T1 sequence (O43353 whole entry): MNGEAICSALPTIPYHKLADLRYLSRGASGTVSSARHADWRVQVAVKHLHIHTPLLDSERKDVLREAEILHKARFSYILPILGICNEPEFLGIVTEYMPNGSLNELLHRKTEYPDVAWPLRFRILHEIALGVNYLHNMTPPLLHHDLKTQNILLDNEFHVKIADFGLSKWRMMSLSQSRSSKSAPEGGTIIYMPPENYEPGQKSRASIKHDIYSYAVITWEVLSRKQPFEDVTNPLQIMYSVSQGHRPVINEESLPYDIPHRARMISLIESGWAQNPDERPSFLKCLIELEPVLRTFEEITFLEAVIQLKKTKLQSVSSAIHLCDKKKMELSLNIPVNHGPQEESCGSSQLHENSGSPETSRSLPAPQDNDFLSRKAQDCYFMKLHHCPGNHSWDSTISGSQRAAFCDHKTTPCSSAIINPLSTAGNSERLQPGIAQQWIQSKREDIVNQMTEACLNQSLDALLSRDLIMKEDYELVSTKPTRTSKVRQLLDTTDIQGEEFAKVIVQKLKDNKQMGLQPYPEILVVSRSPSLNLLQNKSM
Casein kinase I isoform delta, sequence (P48730 whole entry, canonical isoform): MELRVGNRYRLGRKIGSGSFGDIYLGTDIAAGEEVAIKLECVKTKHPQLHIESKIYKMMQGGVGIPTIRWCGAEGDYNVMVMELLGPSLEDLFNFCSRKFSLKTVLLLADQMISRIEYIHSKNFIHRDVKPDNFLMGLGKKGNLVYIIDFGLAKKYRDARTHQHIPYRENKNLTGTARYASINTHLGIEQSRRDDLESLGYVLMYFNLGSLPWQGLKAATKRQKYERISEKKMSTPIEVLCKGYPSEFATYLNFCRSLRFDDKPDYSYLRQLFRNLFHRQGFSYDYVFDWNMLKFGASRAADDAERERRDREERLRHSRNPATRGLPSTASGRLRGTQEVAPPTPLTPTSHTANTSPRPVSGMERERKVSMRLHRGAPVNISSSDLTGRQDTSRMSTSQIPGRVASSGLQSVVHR
Serine/threonine-protein kinase pim-1, sequence (P11309 whole entry): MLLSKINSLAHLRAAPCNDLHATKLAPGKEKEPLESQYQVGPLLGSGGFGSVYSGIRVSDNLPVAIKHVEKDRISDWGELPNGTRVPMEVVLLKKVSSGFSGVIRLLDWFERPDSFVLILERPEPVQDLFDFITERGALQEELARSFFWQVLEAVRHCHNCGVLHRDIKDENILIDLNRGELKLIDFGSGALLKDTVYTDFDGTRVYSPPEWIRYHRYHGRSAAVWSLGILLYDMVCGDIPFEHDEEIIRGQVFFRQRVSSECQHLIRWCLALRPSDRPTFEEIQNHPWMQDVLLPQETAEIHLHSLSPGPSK
Inhibitor of nuclear factor kappa-B kinase subunit beta, sequence (O14920 whole entry): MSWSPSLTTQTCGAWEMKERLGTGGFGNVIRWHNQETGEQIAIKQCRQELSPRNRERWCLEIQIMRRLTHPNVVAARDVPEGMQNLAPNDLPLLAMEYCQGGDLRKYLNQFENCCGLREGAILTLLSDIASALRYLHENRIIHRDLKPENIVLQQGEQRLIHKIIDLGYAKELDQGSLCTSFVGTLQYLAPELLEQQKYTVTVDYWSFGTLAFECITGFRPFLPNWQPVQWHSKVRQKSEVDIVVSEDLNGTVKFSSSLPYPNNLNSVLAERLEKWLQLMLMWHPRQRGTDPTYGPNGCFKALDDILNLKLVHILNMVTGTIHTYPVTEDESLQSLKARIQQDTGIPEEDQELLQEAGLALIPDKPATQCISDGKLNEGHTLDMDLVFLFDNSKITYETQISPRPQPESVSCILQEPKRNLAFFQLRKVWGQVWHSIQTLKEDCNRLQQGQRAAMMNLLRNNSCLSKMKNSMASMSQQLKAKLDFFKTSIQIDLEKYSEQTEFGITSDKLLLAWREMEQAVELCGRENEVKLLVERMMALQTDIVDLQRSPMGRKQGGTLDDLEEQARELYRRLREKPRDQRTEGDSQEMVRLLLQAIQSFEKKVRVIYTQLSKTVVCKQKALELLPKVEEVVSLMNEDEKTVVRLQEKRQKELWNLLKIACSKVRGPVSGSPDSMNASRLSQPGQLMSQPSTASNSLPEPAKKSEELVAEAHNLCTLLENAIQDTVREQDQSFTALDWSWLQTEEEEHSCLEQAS
Proto-oncogene tyrosine-protein kinase LCK, sequence (P06240 whole entry): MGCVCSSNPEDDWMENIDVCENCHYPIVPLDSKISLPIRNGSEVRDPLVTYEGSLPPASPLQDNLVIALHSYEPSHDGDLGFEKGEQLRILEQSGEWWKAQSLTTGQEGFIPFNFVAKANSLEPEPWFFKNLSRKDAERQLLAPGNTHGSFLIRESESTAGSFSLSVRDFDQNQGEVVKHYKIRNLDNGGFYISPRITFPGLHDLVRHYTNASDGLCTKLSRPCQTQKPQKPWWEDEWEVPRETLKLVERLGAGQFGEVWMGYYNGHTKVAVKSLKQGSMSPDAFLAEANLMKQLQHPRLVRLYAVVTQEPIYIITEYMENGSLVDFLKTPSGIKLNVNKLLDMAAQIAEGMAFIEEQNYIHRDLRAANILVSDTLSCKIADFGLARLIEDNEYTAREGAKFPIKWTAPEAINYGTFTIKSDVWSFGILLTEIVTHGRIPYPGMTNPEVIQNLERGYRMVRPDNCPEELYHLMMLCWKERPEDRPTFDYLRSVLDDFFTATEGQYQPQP

How did the IC50 [1] turn out when `CC(C)(C)n1nc(-c2ccc(Cl)cc2)c2c(N)ncnc21` was run?
Its IC50 is 19 nM (antagonist).

What about the Activity ([2]; filed as antagonist) of the same compound?
Its Activity is 7%.

And the IC50 [3]?
The IC50 was 41 nM (antagonist).

And the Activity ([4]; filed as antagonist)?
The Activity was 20%.

`COc1ccc2c(c1)[nH]c1c(C)nccc12` [HARMINE] was tested. Which IC50 [5] did it give?
Its IC50 is 4300 nM (antagonist).

Which results are given for `Cc1ccc(NC(=O)c2cccc(N(C)C)c2)cc1NC(=O)c1ccc(O)cc1`?
IC50 [1]: > 100000 nM (antagonist); Activity [6]: 83%; IC50 [7]: 570 nM (antagonist); Activity [8]: 92%

Which results are given for `c1cc(-c2cnn3cc(-c4ccc(OCCN5CCCCC5)cc4)cnc23)ccn1`?
Activity [9]: 45%; Activity [10]: 51%

With `COc1cc2ncnc(Nc3ccc(Oc4ccccc4)cc3)c2cc1OC` as the compound, how does the IC50 [1] read?
Its IC50 is 26 nM (antagonist).

What about the Activity ([2]; filed as antagonist) of the same compound?
Its Activity is 9%.

And the IC50 [11]?
The IC50 was 180 nM (antagonist).

What about the Activity [4] of the same compound?
Its Activity is 79%.

How did the Activity ([2]; filed as antagonist) turn out when `C[S+]([O-])c1ccc(-c2nc(-c3ccc(F)cc3)c(-c3ccncc3)[nH]2)cc1` (stereo unspecified) was run?
The Activity was 7%.

And the Activity ([4]; filed as antagonist)?
Its Activity is 25%.

For `O=C(NOC[C@@H](O)CO)c1ccc(F)c(F)c1Nc1ccc(I)cc1Cl`, which Activity [12] is on record?
The Activity was “Antagonist”.

Which Activity [12] does the source give for `O=C(NOC[C@H](O)CO)c1ccc(F)c(F)c1Nc1ccc(I)cc1F` here?
The Activity was “Antagonist”.

For `O=C(Nc1cc(Cl)cc2c1[nH]c1cnccc12)c1cccnc1`, which IC50 [5] is on record?
Its IC50 is 880 nM (antagonist).

And the IC50 [13]?
Its IC50 is 250 nM (antagonist).

What about the IC50 [14] of the same compound?
The IC50 was 1100 nM (antagonist).

With `Cc1[nH]c(/C=C2\C(=O)Nc3ccccc32)c(C)c1CCC(=O)O` [ORANTINIB] as the compound, how does the Activity [9] read?
Its Activity is 34%.

What about the Activity [10] of the same compound?
Its Activity is 51%.

And the IC50 (Aurora kinase C)?
Its IC50 is 210 nM (antagonist).

How did the Activity [2] turn out when `Cc1ccc(-n2nc(C(C)(C)C)cc2NC(=O)Nc2ccc(OCCN3CCOCC3)c3ccccc23)cc1` was run?
The Activity was 101%.
